# According to paper PMC8734228 (Cancer discovery, 2021):
# Where two headings read alike, the source gives them in different places.
# Legend:
# FLC1,3,5 cells = experiment: Synergy assay, combination matrix with panobinostat; assay type: cell-based, human
# ErbB2 = conditions: read-out: IC50 ErbB2; cited from earlier work
# FLC PDX cells = experiment: Validation screen on cells dissociated from FLC PDX; assay type: cell-based, human; conditions: for Effect on FLC PDX cells in vitro (dose response, normalized percent survival): 10nM-10μM, FLC1-6; for Effect on FLC PDX cells in vitro (dose response, normalized percent survival) / EC50: 72 h; for Efficacy ranking in the screen: ranked by average −log10EC50 for FLC1-5 minus −log10EC50 for PHH; for Therapeutic window for FLC over PHH: FLC PDX cells compared with PHH
# FLC1 PDX cells = experiment: Validation screen, 11-point dose response, 72 h, Cell Titer Glo; assay type: cell-based, human; conditions: read-out: EC50 FLC
# [1] = system: primary human hepatocytes (PHH); experiment: Validation counter-screen on primary human hepatocytes; conditions: 72 h; for EC50: read-out: EC50 PHH; for Effect on PHH (dose response, normalized percent survival): up to 10 μM
# FLC5 PDX cells = experiment: Validation screen, 11-point dose response, 72 h, Cell Titer Glo; assay type: cell-based, human; conditions: read-out: EC50 FLC
# FLC2 PDX cells = experiment: as above; assay type: cell-based, human; conditions: read-out: EC50 FLC
# FLC3 PDX cells = experiment: as above; assay type: cell-based, human; conditions: read-out: EC50 FLC
# FLC4 PDX cells = experiment: as above; assay type: cell-based, human; conditions: read-out: EC50 FLC
# FLC5 cells = experiment: Anchor screen, synergy assay; assay type: cell-based, human; conditions: FLC5, ZIP, Bliss and HSA scores
# AURKA = conditions: read-out: IC50 AURKA; cited from earlier work
# PAK 2 = conditions: read-out: IC50 PAK 2; cited from earlier work
# PAK 3 = conditions: read-out: IC50 PAK 3; cited from earlier work
# PAK 1 = conditions: read-out: IC50 PAK 1; cited from earlier work
# PKG = conditions: read-out: Ki against other kinases: PKG; cited from earlier work
# PKA = conditions: read-out: Ki PKA; cited from earlier work
# [2] = system: cells dissociated directly from patient tumors (FLC.T6-T11); experiment: Direct from patient in vitro screening; assay type: cell-based, human; conditions: for Sensitivity of cells tested directly from patients: 10μM-10nM, 72h, Cell Titer Glo; for Drug sensitivity of FLC.T6 compared with derived PDX FLC6 (EC50): cells direct from patient tumor vs cells from its PDX
# EGFR = conditions: read-out: IC50 EGFR; cited from earlier work
# FLC1 cells = experiment: Role of ROS: survival with or without N-acetyl cysteine 10mM; assay type: cell-based, human; conditions: NAC 10mM, 72 h
# Akt1 = conditions: read-out: Ki against other kinases: Akt1; cited from earlier work
# Akt3 = conditions: read-out: Ki against other kinases: Akt3; cited from earlier work
# mTOR = conditions: read-out: IC50 mTOR; cited from earlier work
# FLC patients = conditions: two FLC patients, clinical trial ref 10; cited from earlier work
# FLC1 PDX = experiment: In vivo drug testing in mice bearing PDX FLC1
# [3] = system: eIF4F sensitive proteins in FLC6 cells; experiment: Immunoblot of eIF4F sensitive protein levels; assay type: cell-based, human
# FLC PDX = experiment: In vivo drug testing of HDAC inhibitors in mice bearing PDX
# [4] = system: cells dissociated from PDX FLC1 and FLC5; experiment: Primary high throughput screen, 1μM, 72 h; assay type: cell-based, human; conditions: pass = survival <60%
# [5] = napabucasin 10mg/kg IP, 5 days on 2 days off, FLC1
# [6] = napabucasin 10mg/kg IP, 14 days
# [7] = napabucasin 10mg/kg, after 14 days
compound,measurement,setting,value
Cc1c(-c2ccc(N3CCc4cccc(C(=O)Nc5nc6ccccc6s5)c4C3)nc2C(=O)O)cnn1CC12CC3CC(CC(C3)C1)C2 [A1331852],Synergy with panobinostat (ZIP synergy score),"FLC1,3,5 cells",synergized
Cc1c2c(nn1C)CSCc1cc(n(C)n1)CSc1cc(c3ccccc3c1)OCCCc1c(C(=O)O)n(C)c3c-2c(Cl)ccc13 [AZD5991],Synergy with panobinostat (ZIP synergy score),"FLC1,3,5 cells",more modest synergy
COCC(=O)NC/C=C/c1ccc2ncnc(Nc3ccc(Oc4ccc(C)nc4)c(C)c3)c2c1 [CP-724714],IC50,ErbB2,0.01 µM
same,"Effect on FLC PDX cells in vitro (dose response, normalized percent survival)",FLC PDX cells,no effect
"NC1(C(=O)N[C@@H](CCO)c2ccc(Cl)cc2)CCN(c2nc[nH]c3nccc2-3)CC1 [Capivasertib (AZD5363), Capivasertib]",EC50,"FLC1 PDX cells; FLC1, 72 h",2.98 µM
same,EC50,[1],> 10 µM
same,EC50,"FLC5 PDX cells; FLC5, 72 h",12.6 µM
same,EC50,"FLC2 PDX cells; FLC2, 72 h",3.85 µM
same,EC50,"FLC3 PDX cells; FLC3, 72 h",5.15 µM
same,EC50,"FLC4 PDX cells; FLC4, 72 h",2.09 µM
Cc1cc(Nc2cc(N3CCN(C)CC3)nc(/C=C/c3ccccc3)n2)n[nH]1 [ENMD-2076],Synergy with A1331852,FLC5 cells,"All drugs, apart from ENMD-2076 and uprosertib, showed some synergy"
same,EC50,"FLC PDX cells; Homo sapiens, read-out: EC50 against the PDX cells",> 5 µM
same,Efficacy ranking in the screen,FLC PDX cells,123
CCn1c(=O)c(-c2ccc(-c3cncs3)cc2Cl)cc2cnc(Nc3ccc(N4CCN(C)CC4)cc3)nc21 [FRAX567],IC50,PAK 2,[…]
same,IC50,PAK 3,0.019 µM
same,"Effect on FLC PDX cells in vitro (dose response, normalized percent survival)",FLC PDX cells,consistent inhibition against all PDX
same,Efficacy ranking in the screen,FLC PDX cells,12
same,IC50,PAK 1,0.008 µM
O=S(=O)(NCCNC/C=C/c1ccc(Br)cc1)c1cccc2cnccc12 [H89],Ki,PKG,0.48 µM
same,EC50,"FLC1 PDX cells; FLC1, 72 h",5.82 µM
same,EC50,[1],41.5 µM
same,EC50,"FLC5 PDX cells; FLC5, 72 h",9.49 µM
same,EC50,"FLC2 PDX cells; FLC2, 72 h",23.9 µM
same,Therapeutic window for FLC over PHH,FLC PDX cells,no therapeutic window
same,EC50,"FLC3 PDX cells; FLC3, 72 h",18.2 µM
same,Ki,PKA,0.048 µM
same,EC50,"FLC4 PDX cells; FLC4, 72 h",20.9 µM
CCOc1cc2ncc(C#N)c(Nc3ccc(OCc4ccccn4)c(Cl)c3)c2cc1NC(=O)/C=C/CN(C)C [Neratinib],Sensitivity of cells tested directly from patients,[2],no effect on three others
same,Drug sensitivity of FLC.T6 compared with derived PDX FLC6 (EC50),[2],correlated well
same,IC50,ErbB2,0.059 µM
same,"Effect on FLC PDX cells in vitro (dose response, normalized percent survival)",FLC PDX cells,"affected FLC1,5 in the micromolar range"
same,IC50,EGFR,0.092 µM
CCc1c2c(nc3ccc(O)cc13)-c1cc3c(c(=O)n1C2)COC(=O)[C@]3(O)CC [SN-38],Sensitivity of cells tested directly from patients,[2],sensitive
same,Drug sensitivity of FLC.T6 compared with derived PDX FLC6 (EC50),[2],correlated well
same,Effect of N-acetyl cysteine (NAC) on the toxicity of the drug,FLC1 cells,no effect
same,"Effect on FLC PDX cells in vitro (dose response, normalized percent survival)",FLC PDX cells,"effective only against FLC1,3,4"
same,Efficacy ranking in the screen,FLC PDX cells,13
"Cn1ncc(Cl)c1-c1cc(C(=O)N[C@H](CN)Cc2ccc(F)c(F)c2)oc1Cl [Uprosertib (GSK2141795), Uprosertib]",Sensitivity of cells tested directly from patients,[2],some sensitivity
same,EC50,"FLC1 PDX cells; Homo sapiens, 72 h",0.049 µM
same,Synergy with A1331852,FLC5 cells,"All drugs, apart from ENMD-2076 and uprosertib, showed some synergy"
same,Synergy with navitoclax,FLC5 cells,now synergized
same,EC50,"[1]; Homo sapiens, Hepatocyte",> 10 µM
same,EC50,"FLC5 PDX cells; Homo sapiens, 72 h",1.72 µM
same,EC50,"FLC2 PDX cells; Homo sapiens, 72 h",5.04 µM
same,Efficacy ranking in the screen,FLC PDX cells,28
same,EC50,"FLC3 PDX cells; Homo sapiens, 72 h",0.87 µM
same,Ki,Akt1,0.18 µM
same,Ki,Akt3,0.038 µM
same,Ki,PKA,0.002 µM
same,EC50,"FLC4 PDX cells; Homo sapiens, 72 h",0.91 µM
C=CC(=O)N1CC/C(=C\c2ccc(F)c([N+](=O)[O-])c2)C(=O)/C(=C/c2ccc(F)c([N+](=O)[O-])c2)C1 [VLX1570],Sensitivity of cells tested directly from patients,[2],blunted response
same,Drug sensitivity of FLC.T6 compared with derived PDX FLC6 (EC50),[2],outliers
same,Effect of N-acetyl cysteine (NAC) on the toxicity of the drug,FLC1 cells,completely abrogated
same,Efficacy ranking in the screen,FLC PDX cells,31
CO[C@H]1C[C@@H]2CC[C@@H](C)[C@@](O)(O2)C(=O)C(=O)N2CCCC[C@H]2C(=O)O[C@H]([C@H](C)C[C@@H]2CC[C@@H](OCCO)[C@H](OC)C2)CC(=O)[C@H](C)/C=C(\C)[C@@H](O)[C@@H](OC)C(=O)[C@H](C)C[C@H](C)/C=C/C=C/C=C/1C [everolimus],Synergy with A1331852,FLC5 cells,some synergy
same,IC50,mTOR,0.0016 to 0.0024 µM
CN1CC[C@H](c2c(O)cc(O)c3c(=O)cc(-c4ccccc4Cl)oc23)[C@H](O)C1 [flavopiridol],Sensitivity of cells tested directly from patients,[2],some sensitivity
same,"Effect on PHH (dose response, normalized percent survival)",[1],toxic
same,Duration of stable disease,FLC patients,17 months
CC(=O)[C@]1(O)Cc2c(O)c3c(c(O)c2[C@@H](O[C@H]2C[C@H](N)[C@H](O)[C@H](C)O2)C1)C(=O)c1ccccc1C3=O [idarubicin],Synergy with A1331852,FLC5 cells,some synergy
same,"Effect on FLC PDX cells in vitro (dose response, normalized percent survival)",FLC PDX cells,showed an effect on some of the FLC PDX
CC(=O)c1cc2c(o1)C(=O)c1ccccc1C2=O [napabucasin],Sensitivity of cells tested directly from patients,[2],sensitive
same,Drug sensitivity of FLC.T6 compared with derived PDX FLC6 (EC50),[2],correlated well
same,Tumor growth at 7 days,FLC1 PDX; [5],44%
same,Tumor growth at 14 days,FLC1 PDX; [5],52%
same,Average weight loss,FLC1 PDX; [6],6.7%
same,Ratio of tumor volume:mouse weight,FLC1 PDX; [6],stable or decreased
same,"Mitotic figures, Ki67 and pHH3 positive cells in tumors",FLC1 PDX; [7],decrease
same,TUNEL positive cells in tumors,FLC1 PDX; [7],small increase
same,"Effect on PHH (dose response, normalized percent survival)",[1],no detectable effect
same,Effect of N-acetyl cysteine (NAC) on the toxicity of the drug,FLC1 cells,partially attenuated
same,c-Myc levels,"[3]; 1 μM napabucasin, FLC cells, GAPDH control",dramatic decrease
same,"Levels of MDM2, Bcl-xL, MCL1 and Cyclin D1","[3]; napabucasin 1μM or 2μM, FLC6 cells",lowered the levels
Cn1cc(CNCC2CCN(c3ncc(C(=O)NO)cn3)CC2)c2ccccc21 [quisinostat],Sensitivity of cells tested directly from patients,[2],sensitive
same,Tumor growth at 14 days,FLC PDX; 10mg/kg IP,7%
same,Apoptosis as assayed by TUNEL,"FLC PDX; 10mg/kg, after 14 days",no significant increase
same,"Mitotic figures, Ki67 and pHH3 positive cells in tumors","FLC PDX; 10mg/kg, after 14 days",almost complete disappearance
same,Macroscopic assessment of tumors,"FLC PDX; quisinostat 10mg/kg daily IP, 14 days",necrosis in the drug treated tumors
same,Effect of N-acetyl cysteine (NAC) on the toxicity of the drug,FLC1 cells,mildly attenuated
Cc1ccc(NC2=CC(=O)c3sc(C)nc3C2=O)cc1 [ryuvidine],EC50,[1],> 10 µM
same,Effect of N-acetyl cysteine (NAC) on the toxicity of the drug,FLC1 cells,completely abrogated
same,"Effect on FLC PDX cells in vitro (dose response, normalized percent survival)",FLC PDX cells,effective against all PDX lines
same,Efficacy ranking in the screen,FLC PDX cells,third
same,EC50,"FLC PDX cells; read-out: EC50 against FLC PDX in vitro, across all FLC PDX lines",0.02 to 0.2 µM
CC[C@@]1(O)C(=O)OCc2c1cc1n(c2=O)Cc2cc3c(CN(C)C)c(O)ccc3nc2-1 [topotecan],Synergy with A1331852,FLC5 cells,some synergy
CC(=O)Nc1cccc(-n2c(=O)n(C3CC3)c(=O)c3c(Nc4ccc(I)cc4F)n(C)c(=O)c(C)c32)c1 [trametinib],Synergy with A1331852,FLC5 cells,some synergy
same,Result in primary screen (normalized percent survival),[4],None
CC1(C)CCC(CN2CCN(c3ccc(C(=O)NS(=O)(=O)c4ccc(NCC5CCOCC5)c([N+](=O)[O-])c4)c(Oc4cnc5[nH]ccc5c4)c3)CC2)=C(c2ccc(Cl)cc2)C1 [venetoclax],"Effect on FLC PDX cells in vitro (dose response, normalized percent survival)",FLC PDX cells,minimal activity
same,Efficacy ranking in the screen,FLC PDX cells,towards the bottom of the ranking
same,Synergy with panobinostat (ZIP synergy score),"FLC1,3,5 cells",no synergy
CNC(=O)c1cccc(-c2ccc3c(N4CCOC[C@@H]4C)nc(N4CCOC[C@@H]4C)nc3n2)c1 [visusertib],Synergy with A1331852,FLC5 cells,some synergy
Aurora Kinase Inhibitor I,EC50,FLC PDX cells; read-out: EC50 against the PDX cells,1 to 4 µM
same,IC50,AURKA,0.0034 µM
SBI-0640756,Sensitivity of cells tested directly from patients,[2],sensitive
same,Effect of N-acetyl cysteine (NAC) on the toxicity of the drug,FLC1 cells,completely abrogated
same,Therapeutic window for FLC over PHH,FLC PDX cells,clear therapeutic window
same,Efficacy ranking in the screen,FLC PDX cells,19
